# Measurements as given in patent publication US8466176B2 (priority 2008, dated 2013).
# Assay: logP(HCOOH) reported with HPLC/MS
# [1] = method [b]: LC-MS, pH 2.7 with 0.1% formic acid in water and acetonitrile (0.1% formic acid), linear gradient 10% to 95% acetonitrile
# [2] = method [a]: HPLC on reversed phase columns, pH 2.3 with 0.1% phosphoric acid and acetonitrile as eluent
# [3] = method [b]: LC-MS at pH 2.7, 0.1% formic acid in water and acetonitrile, linear gradient 10% to 95% acetonitrile
# [4] = HCOOH (formic acid), logP(HCOOH), HPLC/MS
# [5] = method [b]: LC-MS at pH 2.7 with 0.1% formic acid in water and acetonitrile (0.1% formic acid), linear gradient 10% to 95% acetonitrile
# [6] = reversed phase HPLC column, pH 2.7, log p, method [b]: LC-MS, pH 2.7 with 0.1% formic acid in water and acetonitrile (0.1% formic acid), linear gradient 10% to 95% acetonitrile
# [7] = method [c]: LC-MS, pH 7.8 with 0.001 molar ammonium hydrogen carbonate solution in water, linear gradient 10% to 95% acetonitrile
structure (smiles),measurement,setting,value
CC(C)c1ccc(C#Cc2nc(CON=C(c3ccccc3)c3nnnn3C)cs2)cc1 [Example 257],log p,[1],5.29^[b]
CCCCOc1ccc(C#Cc2nc(CON=C(c3ccccc3)c3nnnn3C)cs2)cc1 [Example 258],log p,[1],5.44^[b]
Cn1nnnc1C(=NOCc1cccc(C(O)CCc2ccccc2)n1)c1ccccc1 (centres unmarked) [Example 176],log p,[2],3.35^[a]
Cn1nnnc1C(=NOCc1nc(C#CCOc2ccccc2)ccc1F)c1ccccc1 [Example 106],log p,[3],4.04^[b]
CCCCCC#Cc1cccc(CON=C(c2ccccc2)c2nnnn2C)n1 [Example 214],log p,[1],4.67^[b]
Cc1sc(C#CC2CCCC2)nc1CON=C(c1ccccc1)c1nnnn1C [Example 190],log p,[1],4.75^[b]
"OCc1cccc(C2OCCO2)n1 [[6-(1,3-dioxolan-2-yl)pyridin-2-yl]methanol]",chromatographic logP,[4],0.54
Cn1nnnc1C(=NOCc1cccc(NCCOC2CCCC2)n1)c1ccccc1 [Example 204],log p,[1],2.14^[b]
COC(C)(C)C#Cc1cccc(CON=C(c2ccccc2)c2nnnn2C)n1 [Example 240],log p,[1],3.42^[b]
COC(C)(C)C#Cc1nc(CON=C(c2ccccc2)c2nnnn2C)cs1 [Example 196],log p,[1],3.53^[b]
Cn1nnnc1C(=NOCc1cccc(N(CC2CC2)C(=O)OC(C)(C)C)n1)c1ccccc1 [Example 142],log p,[2],4.7^[a]
Cn1nnnc1C(=NOCc1cccc(N(OCCc2ccccc2)C(=O)OC(C)(C)C)n1)c1ccccc1 [Example 281],log p,[5],4.89^[b]
CCOc1ccc(C#Cc2cccc(CON=C(c3ccccc3)c3nnnn3C)n2)cc1 [Example 227],log p,[1],4.41^[b]
CN(C)c1cccc(C(=O)c2nnnn2C)c1 [[3-(dimethylamino)phenyl](1-methyl-1H-tetrazol-5-yl)methanone],chromatographic logP,[4],2.21
Cn1nnnc1C(=NOCc1nc(C#CCOc2ccccc2)sc1Cl)c1ccccc1 [Example 119],log p,[3],4.62^[b]
CCCCC#Cc1nc(CON=C(c2ccccc2)c2nnnn2C)c(Cl)s1 [Example 117],log p,[3],5.22^[b]
COc1ccc(C#Cc2cccc(CON=C(c3ccccc3)c3nnnn3C)n2)cc1 [Example 228],log p,[1],4.01^[b]
COc1ccc(CON=C(c2ccccc2)c2nnnn2C)nc1C#CC(C)(C)C [Example 133],log p,[1],3.92^[b]
Cn1nnnc1C(=NOCc1cccc(C#CCCC#N)n1)c1ccccc1 [Example 209],log p,[1],2.7^[b]
Cn1nnnc1C(=NOCc1csc(C#CCC2CCCC2)n1)c1cccc(F)c1 [Example 153],log p,[1],5.03^[b]
Cc1ccc(C#Cc2cccc(CON=C(c3ccccc3)c3nnnn3C)n2)cc1 [Example 231],log p,[1],4.44^[b]
CON(C)C(=O)c1cccc(SC)c1 [N-methoxy-N-methyl-3-(methylsulfanyl)benzamide],chromatographic logP,"logP(HCOOH), HPLC/MS",1.89
Cn1nnnc1C(=NOCc1nc(C#CC2CCCC2)sc1Cl)c1ccccc1 [Example 116],log p,[3],5.31^[b]
CCCC#Cc1nc(CON=C(c2ccccc2)c2nnnn2C)cs1 [Example 261],log p,[2],3.89^[a]
CC(C)(C)OC(=O)Nc1cccc(C=O)n1 [tert-butyl (6-formylpyridin-2-yl)carbamate],chromatographic logP,"logP(HCOOH), HPLC/MS",2.44
Cn1nnnc1C(=NOCc1cccc(C(=O)NC(C)(C)C)n1)c1ccccc1 [Example 86],log p,[3],3.37^[b]
Cc1nnnn1C(=NOCc1cccc(NC(=S)NC(C)C)n1)c1ccccc1 [Example 12],log p,[3],3.22^[b]
Cn1nnnc1C(=NOCc1cccc(C=NN=CC2CC=CCC2)n1)c1ccccc1 (centres unmarked) [Example 201],log p,[2],4.16^[a]
"Cn1nnnc1C(=NOCc1csc(C#CCOCc2ccccc2)n1)c1ccccc1 [Example 263, N-({2-[3-(benzyloxy)prop-1-yn-1-yl]-1,3-thiazol-4-yl}methoxy)-1-(1-methyl-1H-tetrazol-5-yl)-1-phenylmethanimine]",chromatographic logP,[4],4.04
same,chromatographic logP,[6],4.04
Cn1nnnc1C(=NOCc1csc(C#Cc2ccc(F)cc2)n1)c1ccccc1 [Example 262],log p,[1],4.16^[b]
CCCCC#Cc1nc(CON=C(c2cccc(SC)c2)c2nnnn2C)cs1 [Example 301],log p,[5],4.78^[b]
Cn1nnnc1C(=NOCc1cccc(C#Cc2cc(F)cc(F)c2)n1)c1ccccc1 [Example 233],log p,[1],4.31^[b]
Cn1nnnc1C(=NOCc1cccc(C#Cc2ccc(C(C)(C)C)cc2)n1)c1ccccc1 [Example 245],log p,[1],5.44^[b]
COc1ccccc1C#Cc1cccc(CON=C(c2ccccc2)c2nnnn2C)n1 [Example 222],log p,[1],3.89^[b]
CCCC#Cc1nc(CON=C(c2ccccc2)n2nnnc2C)cs1 [Example 165],log p,[1],4.04^[b]
Cn1nnnc1C(=NOCc1nc(C#CCCCCl)sc1Cl)c1ccccc1 [Example 121],log p,[3],4.51^[b]
Cn1nnnc1C(=NOCc1cccc(F)n1)c1ccccc1 [Example 79],log p,[3],2.77^[b]
CC(C)(C)OC(=O)Nc1cccc(CO)n1 [tert-butyl [6-(hydroxymethyl)pyridin-2-yl]carbamate],chromatographic logP,"logP(HCOOH), HPLC/MS",1.14
Cc1nnnn1C(=NOCc1csc(C#CC2CC2)n1)c1ccccc1 [Example 159],chromatographic logP,"logP(HCOOH), HPLC/MS",3.65
same,chromatographic logP,[6],3.65
CSc1cccc(C(=NOCc2csc(C#CC3CC3)n2)c2nnnn2C)c1 [Example 303],log p,[5],3.99^[b]
"Cc1sc(Br)nc1CON=C(c1ccccc1)c1nnnn1C [Example 175, N-[(2-bromo-5-methyl-1,3-thiazol-4-yl)methoxy]-1-(1-methyl-1H-tetrazol-5-yl)-1-phenylmethanimine]",chromatographic logP,"HPLC, logP(HCOOH), HPLC/MS",3.37
same,chromatographic logP,[6],3.37
COc1cccc(C#Cc2cccc(CON=C(c3ccccc3)c3nnnn3C)n2)c1 [Example 221],log p,[1],4.09^[b]
Cc1nnnn1C(=NOCc1cccc(NC(=S)NC2CCCC2)n1)c1ccccc1 [Example 9],log p,[3],3.53^[b]
"Cc1cccc(C2OCCO2)n1 [2-(1,3-dioxolan-2-yl)-6-methylpyridine]",chromatographic logP,[4],1.21
Cn1nnnc1C(=NOCc1cccc(C#Cc2ccsc2)n1)c1ccccc1 [Example 207],log p,[1],3.83^[b]
Cn1nnnc1C(=NOCc1cccc(NCCCC2CCCCC2)n1)c1ccccc1 [Example 200],log p,[2],3.17^[a]
Cc1nnnn1C(=NOCc1cccc(NC(=S)NCCc2ccccc2)n1)c1ccccc1 [Example 7],log p,[3],3.67^[b]
CCN(C)C=Nc1cccc(CON=C(c2ccccc2)n2nnnc2C)n1 [Example 3],log p,[3],1.43^[b]
Cc1nnnn1C(=NOCc1cccc(NC(=S)NC2CCCCC2)n1)c1ccccc1 [Example 8],log p,[3],3.81^[b]
Cn1nnnc1C(=NOCc1cccc(C#Cc2ccc(C(F)(F)F)cc2)n1)c1ccccc1 [Example 217],log p,[1],4.65^[b]
CCCCC1COC(c2cccc(CON=C(c3ccccc3)c3nnnn3C)n2)O1 (centres unmarked) [Example 172],log p,[7],4.34^[c]
OCc1nc(Br)ccc1F [(6-bromo-3-fluoropyridin-2-yl)methanol],chromatographic logP,[4],0.92
CSc1cccc(C(=NOCc2csc(C#CC3CCCC3)n2)c2nnnn2C)c1 [Example 302],chromatographic logP,"reversed phase HPLC column, pH 2.7, log p, method [b]: LC-MS at pH 2.7 with 0.1% formic acid in water and acetonitrile (0.1% formic acid), linear gradient 10% to 95% acetonitrile",4.86
Cn1nnnc1C(=NOCc1cccc(C#CCCc2ccccc2)n1)c1ccccc1 [Example 210],log p,[1],4.29^[b]
COc1ccc(C#Cc2nc(CON=C(c3ccccc3)c3nnnn3C)cs2)cc1 [Example 192],log p,[1],4.14^[b]
"Cn1nnnc1C(=NOCc1cccc(C=O)n1)c1ccccc1 [Example 174, 6-[({[(1-methyl-1H-tetrazol-5-yl)(phenyl)methylene]amino}oxy)methyl]pyridine-2-carbaldehyde]",chromatographic logP,"logP(HCOOH), HPLC/MS",2.54
same,chromatographic logP,"reversed phase HPLC columns, pH 2.3, log p, method [a]: HPLC on reversed phase columns, pH 2.3 with 0.1% phosphoric acid and acetonitrile as eluent",2.54
Cn1nnnc1C(=NOCc1cccc(NOCC2CCCCC2)n1)c1ccccc1 [Example 284],log p,[5],4.44^[b]
CCCOC(C)(C)C#Cc1cccc(CON=C(c2ccccc2)c2nnnn2C)n1 [Example 241],log p,[1],4.31^[b]
"Cc1cccc(NC(=O)C(C)(C)C)n1 [2,2-dimethyl-N-(6-methylpyridin-2-yl)propanamide]",chromatographic logP,[4],1.2
CCc1ccc(C#Cc2nc(CON=C(c3cccc(F)c3)c3nnnn3C)cs2)cc1 [Example 293],log p,[5],5^[b]
Cn1nnnc1C(=NOCc1csc(C#CCCc2ccccc2)n1)c1cccc(F)c1 [Example 156],log p,[1],4.49^[b]
COC(=O)c1cccc(CON=C(c2ccccc2)n2nnnc2C)n1 [Example 14],log p,[3],2.47^[b]
Cn1nnnc1C(=NOCc1cccc(C2OCC(COCc3ccccc3)O2)n1)c1ccccc1 (centres unmarked) [Example 173],log p,[7],3.89^[c]
CSc1cccc(C(=NOCc2csc(Br)n2)c2nnnn2C)c1 [Example 299],log p,[5],3.55^[b]
Cc1cccc(NC=O)n1 [N-(6-methylpyridin-2-yl)formamide],chromatographic logP,"logP(HCOOH), HPLC/MS",0.45
Cn1nnnc1C(=NOCc1cccc(NCCC2CCCCC2)n1)c1cccc(F)c1 [Example 291],log p,[5],3.27^[b]
"Cn1nnnc1C(=NOCc1csc(NCCC2CCCCC2)n1)c1ccccc1 [Example 161, N-(2-cyclohexylethyl)-4-[({[(1-methyl-1H-tetrazol-5-yl)(phenyl)methylene]amino}oxy)methyl]-1,3-thiazol-2-amine]",chromatographic logP,"formic acid (HCOOH), logP(HCOOH), HPLC/MS",3.62
same,chromatographic logP,[6],3.62
Cn1nnnc1C(=NOCc1cccc(C#Cc2cccc(F)c2)n1)c1ccccc1 [Example 248],log p,[1],4.16^[b]
CCCCCCC#Cc1cccc(CON=C(c2ccccc2)c2nnnn2C)n1 [Example 235],log p,[1],5.11^[b]
